Test results published in ChEMBL document CHEMBL1201862, “PubChem BioAssay data set” (2004).
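Five compound concentrations were applied to cells in 96-well plates for 48 hours; endpoints were derived by simple linear interpolation of the resulting dose-response curve. The concentration for 50% growth inhibition is given as GI50.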 Active and inactive are the calls of the source. Rule as the data show it: active = GI50 up to about 1.1 µM and inactive = higher.

How the values were obtained:
Experiment in all cases: growth of human tumour cells (NCI), 48 h
HCC 2998 = test system: HCC 2998
A498 = test system: A498
786-0 = test system: 786-0
HCT-15 = test system: HCT-15
CAKI-1 = test system: CAKI-1
DMS-273 = test system: DMS-273
EKVX = test system: EKVX
HOP-18 = test system: HOP-18
OVCAR-5 = test system: OVCAR-5
MOLT-4 = test system: MOLT-4
SF-295 = test system: SF-295
SF-268 = test system: SF-268
DLD-1 = test system: DLD-1
UACC-257 = test system: UACC-257
XF498 = test system: XF498
RXF 393 = test system: RXF 393
HOP-92 = test system: HOP-92
CCRF-CEM = test system: CCRF-CEM
SW-620 = test system: SW-620
IGROV-1 = test system: IGROV-1
NCI-H460 = test system: NCI-H460
M14 = test system: M14
A549 = test system: A549
LXFL 529 = test system: LXFL 529
Malme-3M = test system: Malme-3M
UO-31 = test system: UO-31
M19-MEL = test system: M19-MEL
NCI-H226 = test system: NCI-H226
SK-MEL-2 = test system: SK-MEL-2
HCT-116 = test system: HCT-116
SK-MEL-5 = test system: SK-MEL-5
RPMI-8226 = test system: RPMI-8226
K562 = test system: K562
ACHN = test system: ACHN
RXF 631 = test system: RXF 631
OVCAR-3 = test system: OVCAR-3
HT-29 = test system: HT-29
SF-539 = test system: SF-539
KM-20L2 = test system: KM-20L2
SNB-75 = test system: SNB-75
LOX IMVI = test system: LOX IMVI
NCI-H522 = test system: NCI-H522
OVCAR-4 = test system: OVCAR-4
UACC-62 = test system: UACC-62
TK-10 = test system: TK-10
U-251 = test system: U-251
SN12C = test system: SN12C
HOP-62 = test system: HOP-62
SR = test system: SR
KM12 = test system: KM12
COLO 205 = test system: COLO 205
SK-MEL-28 = test system: SK-MEL-28
OVCAR-8 = test system: OVCAR-8
SNB-19 = test system: SNB-19
NCI-H23 = test system: NCI-H23
DMS-114 = test system: DMS-114
SNB-78 = test system: SNB-78
HL-60 = test system: HL-60
MDA-MB-231 = test system: MDA-MB-231
Hs-578T = test system: Hs-578T
PC-3 = test system: PC-3
T47D = test system: T47D
NCI/ADR-RES = test system: NCI/ADR-RES
MDA-N = test system: MDA-N
MCF7 = test system: MCF7
SK-OV-3 = test system: SK-OV-3
MDA-MB-435 = test system: MDA-MB-435

For `[N-]=[N+]=Nc1ccc(S(=O)(=O)Oc2cc(OS(=O)(=O)c3ccc(N=[N+]=[N-])cc3)cc(OS(=O)(=O)c3ccc(N=[N+]=[N-])cc3)c2)cc1`, the GI50 (HCC 2998) was > 100 µM (inactive), the GI50 (A498) was > 100 µM (inactive) and the GI50 (786-0) was > 100 µM (inactive). For the same molecule, the GI50 (HCT-15) was over 100 µM, the GI50 (CAKI-1) was > 10 µM (inactive) and the GI50 (DMS-273) was > 100 µM (inactive). For the same molecule, the GI50 (EKVX) was > 100 µM (inactive), the GI50 (HOP-18) was > 100 µM (inactive) and the GI50 (OVCAR-5) was > 100 µM (inactive). The GI50 (MOLT-4) was > 100 µM (inactive), the GI50 (SF-295) was > 100 µM (inactive) and the GI50 (SF-268) was > 100 µM (inactive). For the same molecule, the GI50 (DLD-1) was > 100 µM (inactive), the GI50 (UACC-257) was > 100 µM (inactive) and the GI50 (XF498) was > 100 µM (inactive). For the same molecule, the GI50 (RXF 393) was > 100 µM (inactive), the GI50 (HOP-92) was > 100 µM (inactive) and the GI50 (CCRF-CEM) was > 100 µM (inactive). For the same molecule, the GI50 (SW-620) was > 10 µM (inactive), the GI50 (IGROV-1) was > 100 µM (inactive) and the GI50 (NCI-H460) was > 100 µM (inactive). The GI50 (M14) was > 100 µM (inactive), the GI50 (A549) was > 100 µM (inactive) and the GI50 (LXFL 529) was > 100 µM (inactive). For the same molecule, the GI50 (Malme-3M) was > 100 µM (inactive), the GI50 (UO-31) was > 100 µM (inactive) and the GI50 (M19-MEL) was > 100 µM (inactive). For the same molecule, the GI50 (NCI-H226) was > 10 µM (inactive), the GI50 (SK-MEL-2) was > 100 µM (inactive) and the GI50 (HCT-116) was > 100 µM (inactive). For the same molecule, the GI50 (SK-MEL-5) was > 100 µM (inactive), the GI50 (RPMI-8226) was > 100 µM (inactive) and the GI50 (K562) was > 100 µM (inactive). The GI50 (ACHN) was > 10 µM (inactive), the GI50 (RXF 631) was > 100 µM (inactive) and the GI50 (OVCAR-3) was > 100 µM (inactive). For the same molecule, the GI50 (HT-29) was > 100 µM (inactive), the GI50 (SF-539) was > 100 µM (inactive) and the GI50 (KM-20L2) was > 100 µM (inactive). The GI50 (SNB-75) was > 10 µM (inactive), the GI50 (LOX IMVI) was > 100 µM (inactive) and the GI50 (NCI-H522) was > 100 µM (inactive). The GI50 (OVCAR-4) was > 10 µM (inactive), the GI50 (UACC-62) was > 100 µM (inactive) and the GI50 (TK-10) was > 100 µM (inactive). For the same molecule, the GI50 (U-251) was > 100 µM (inactive), the GI50 (SN12C) was > 10 µM (inactive) and the GI50 (HOP-62) was > 100 µM (inactive). For the same molecule, the GI50 (SR) was > 100 µM (inactive), the GI50 (KM12) was > 100 µM (inactive) and the GI50 (COLO 205) was > 10 µM (inactive). The GI50 (SK-MEL-28) was > 100 µM (inactive), the GI50 (OVCAR-8) was > 10 µM (inactive) and the GI50 (SNB-19) was > 10 µM (inactive). The GI50 (NCI-H23) was > 100 µM (inactive), the GI50 (DMS-114) was > 100 µM (inactive) and the GI50 (SNB-78) was > 100 µM (inactive).

In the case of `CN(C)C(=S)/N=c1\ssc(=S)n1Cc1cccnc1`, the GI50 (HCC 2998) is reported as 2.54 µM (inactive), the GI50 (A498) is reported as 10.1 µM (inactive) and the GI50 (HL-60) is reported as 1.76 µM (inactive). The GI50 (786-0) was 4.07 µM (inactive), the GI50 (HCT-15) was 1.23 µM and the GI50 (CAKI-1) was 3.16 µM (inactive). The GI50 (DMS-273) was 1.09 µM (active), the GI50 (EKVX) was > 88.9 µM (inactive) and the GI50 (HOP-18) was > 100 µM (inactive). The GI50 (OVCAR-5) was 35.9 µM (inactive), the GI50 (MOLT-4) was 6.46 µM (inactive) and the GI50 (SF-295) was 1.81 µM (inactive). For the same molecule, the GI50 (SF-268) was 15.2 µM (inactive), the GI50 (DLD-1) was 3.95 µM (inactive) and the GI50 (UACC-257) was 4.23 µM (inactive). For the same molecule, the GI50 (XF498) was 3.15 µM (inactive), the GI50 (RXF 393) was 1.47 µM (inactive) and the GI50 (HOP-92) was 3.81 µM (inactive). The GI50 (CCRF-CEM) was 8.53 µM (inactive), the GI50 (SW-620) was 1.26 µM (inactive) and the GI50 (IGROV-1) was 7.18 µM (inactive). For the same molecule, the GI50 (NCI-H460) was 2.81 µM (inactive), the GI50 (MDA-MB-231) was 6.07 µM (inactive) and the GI50 (M14) was 2.37 µM (inactive). The GI50 (A549) was 4.93 µM (inactive), the GI50 (LXFL 529) was 6.15 µM (inactive) and the GI50 (Malme-3M) was 2.16 µM (inactive). The GI50 (UO-31) was 13.1 µM (inactive), the GI50 (M19-MEL) was 1.51 µM (inactive) and the GI50 (NCI-H226) was > 55.6 µM (inactive). For the same molecule, the GI50 (SK-MEL-2) was 2.29 µM (inactive), the GI50 (HCT-116) was 3.2 µM (inactive) and the GI50 (SK-MEL-5) was 1.67 µM (inactive). The GI50 (RPMI-8226) was 3.47 µM (inactive), the GI50 (Hs-578T) was 1.86 µM (inactive) and the GI50 (K562) was 1.12 µM (active). For the same molecule, the GI50 (ACHN) was 6.76 µM (inactive), the GI50 (RXF 631) was 4.39 µM (inactive) and the GI50 (OVCAR-3) was 1.65 µM (inactive). The GI50 (PC-3) was 1.67 µM (inactive), the GI50 (HT-29) was 1.66 µM (inactive) and the GI50 (SF-539) was 4.02 µM (inactive). The GI50 (KM-20L2) was 2.06 µM (inactive), the GI50 (SNB-75) was 1.91 µM (inactive) and the GI50 (LOX IMVI) was 4.27 µM (inactive). The GI50 (NCI-H522) was 0.531 µM (active), the GI50 (OVCAR-4) was 19.3 µM (inactive) and the GI50 (T47D) was > 100 µM (inactive). The GI50 (UACC-62) was 2.17 µM (inactive), the GI50 (NCI/ADR-RES) was 1.01 µM (active) and the GI50 (TK-10) was 14.2 µM (inactive). The GI50 (U-251) was 3.38 µM (inactive), the GI50 (MDA-N) was 0.324 µM (active) and the GI50 (SN12C) was 5.18 µM (inactive). The GI50 (HOP-62) was 4.91 µM (inactive), the GI50 (MCF7) was 2.91 µM (inactive) and the GI50 (SR) was 0.638 µM (active). The GI50 (KM12) was 1 µM (active), the GI50 (COLO 205) was 2.2 µM (inactive) and the GI50 (SK-MEL-28) was 9.4 µM (inactive). For the same molecule, the GI50 (OVCAR-8) was 3.66 µM (inactive), the GI50 (SNB-19) was 5.15 µM (inactive) and the GI50 (NCI-H23) was 2.64 µM (inactive). The GI50 (SK-OV-3) was 4.36 µM (inactive), the GI50 (MDA-MB-435) was 0.277 µM (active) and the GI50 (DMS-114) was 0.783 µM (active). The GI50 (SNB-78) was > 100 µM (inactive).
